The values that follow come from patent publication US4910021A, “Targeted enternal delivery system” (priority 1985, dated 1990).

One data set deals with blood glucose. The data set can be described thus: Hypoglycemia effect in rats after oral (coated capsules) or intraperitoneal insulin. Details: AUC (area under the % glucose reduction versus time curve): unit not given beside the values. It is filed as in vivo, rat (Hebrew University strain male rats). The settings on record: i.p., 4 iu, 15 iu kg^-1, rats.
The next data set deals with rats. The settings on record: intrajejunal injection in presence of Cetamacrogol 1000, rats; cited from earlier work.
The conditions of data set [1]: rectal, dogs, cited from earlier work.

Read-outs that look alike come from different tables or passages of the source.

Protocol for blood glucose: Such capsules were administered to male rats (270 g) and insulin absorption was measured by the determination of the resulting hypoglycemia effect.
Hebrew University strain male rats (270 g) were starved for 20 hours before the experiment. During the experiment the rats received water ad libitum. The capsules were administered to the rats according to the study design presented in Scheme 1. The absorption of the intact insulin was evaluated by measuring the hypoglycemia effect. Blood was collected from the rats'tails immediately before capsule administration and at 1/2, 1, 2, 3, 4 and 6 hours afterwards. The rats were etheranaesthetized during blood collection. Blood glucose concentrations were determined at 610 nm using the GOD-Perid method (Boehringer, Germany).
The selected capsules were administered to rats following the protocol presented in Scheme 1, and the results were compared with those obtained by intraperitoneal administration of 4 iu neutral insulin.
The mean of the blood glucose concentration of the samples prior to dosage administration was used as a baseline for plotting the response versus time curves.
Curves of % glucose and % glucose reduction versus time were plotted (see FIGS. 3 and 4) and the area under the % glucose reduction versus time curve (AUC), the maximum glucose reduction (Cmax) and the time of the maximum effect (tmax) were estimated from these curves.

For “insulin: porcine insulin Leo Neutral 100 iu ml^-1 (Nordisk Gentofte); i.p. 4 iu neutral insulin”, in the data set with blood glucose, the “AUC (area under the % glucose reduction versus time curve)” value stood at 258, the “Cmax (maximum % glucose reduction)” value is 58% and the “tmax (time of the maximum effect)” value worked out at 2 h. For the same substance, the hypoglycemia entry in the data set on rats is recorded as “significant hypoglycemia”. In addition, the bioavailability in data set [1] (before improvement by post-administration of promoter) was 19.4%. Moreover, the bioavailability in data set [1] (with post-administration of promoter (enamine)) is given as 38.2%.

The term bioavailability denotes the share of a dose that reaches the circulation, judged against a reference dose that is usually intravenous.
